Experimental data published in PMC4899947 (Bioorganic & medicinal chemistry letters, 2016).
One block for each compound: values may come before it.

Columns and labels:
[1] = tested on: other mGlu receptors; assay: Selectivity versus the other mGlu receptors
[2] = Plasma and brain samples from the oral HIC study; format: in vivo, rat; settings: rats
[3] = tested on: haloperidol-induced catalepsy; assay: Reversal of haloperidol-induced catalepsy; format: in vivo, rat; settings: rats; for reversal of haloperidol-induced catalepsy (in words): p.o.
[4] = biological target: human mGlu4 (Homo sapiens, UniProt Q14833); assay: Calcium mobilization mGlu4 PAM assay; format: cell-based
Sequence of human mGlu4 (Q14833 33-912): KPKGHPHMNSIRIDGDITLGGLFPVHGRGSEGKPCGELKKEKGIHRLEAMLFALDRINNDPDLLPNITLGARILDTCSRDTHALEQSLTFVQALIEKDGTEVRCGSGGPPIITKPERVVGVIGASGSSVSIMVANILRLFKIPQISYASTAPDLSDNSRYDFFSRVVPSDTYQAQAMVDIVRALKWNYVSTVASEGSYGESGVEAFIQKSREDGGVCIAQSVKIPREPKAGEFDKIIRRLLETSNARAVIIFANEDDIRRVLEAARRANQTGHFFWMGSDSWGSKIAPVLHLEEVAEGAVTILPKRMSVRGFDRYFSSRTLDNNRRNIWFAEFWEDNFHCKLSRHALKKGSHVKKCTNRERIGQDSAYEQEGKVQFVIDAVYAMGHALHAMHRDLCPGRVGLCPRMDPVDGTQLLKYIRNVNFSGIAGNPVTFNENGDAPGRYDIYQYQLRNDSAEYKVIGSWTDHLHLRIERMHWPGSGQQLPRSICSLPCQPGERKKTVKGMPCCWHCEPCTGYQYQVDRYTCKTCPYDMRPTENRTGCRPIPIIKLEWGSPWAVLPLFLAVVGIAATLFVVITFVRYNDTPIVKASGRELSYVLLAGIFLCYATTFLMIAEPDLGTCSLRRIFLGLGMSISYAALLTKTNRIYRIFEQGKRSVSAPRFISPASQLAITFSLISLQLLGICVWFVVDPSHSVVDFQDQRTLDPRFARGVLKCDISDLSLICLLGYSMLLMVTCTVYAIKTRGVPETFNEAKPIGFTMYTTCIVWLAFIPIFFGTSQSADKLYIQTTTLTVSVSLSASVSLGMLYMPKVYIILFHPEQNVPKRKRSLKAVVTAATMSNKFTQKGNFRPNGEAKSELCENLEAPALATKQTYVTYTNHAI

selectivity versus the other mGlu receptors [1]: excellent selectivity | total brain level, fold above the rat mGlu4 PAM EC50 [2]: greater than 3.5 fold
SMILES: CCc1cnc(Oc2ccc(NC(=O)c3ncccc3N)cc2Cl)nc1 [Compound 17t]
reversal of haloperidol-induced catalepsy at 3 mg/kg p.o. ([3]; 3 mg/kg p.o., comparable to 6 at 10 mg/kg p.o.): robust reversal | reversal of haloperidol-induced catalepsy (in words) ([3]; haloperidol 1.5 mg/kg): more efficacious than 6

mGlu4 PAM activity (in words) [4]: good PAM activity
SMILES: Nc1cccnc1C(=O)Nc1ccc(N2Cc3ccccc3C2=O)c(Cl)c1 [Compound 17e]

mGlu4 PAM activity (in words) [4]: good PAM activity
SMILES: COc1ccc2c(c1)C(=O)N(c1ccc(NC(=O)c3ncccc3N)cc1Cl)C2 [Compound 17h]

mGlu4 PAM activity (in words) [4]: devoid of mGlu4 PAM activity
SMILES: CCc1cnc(Oc2ccc(NC(=O)c3ccncc3N)cc2Cl)nc1 [Compound 19]

mGlu4 PAM activity (in words) [4]: good PAM activity
SMILES: Cc1cccc2c1C(=O)N(c1ccc(NC(=O)c3ncccc3N)cc1Cl)C2=O [Compound 17d]

mGlu4 PAM activity (in words) [4]: devoid of PAM activity
SMILES: Nc1cccnc1C(=O)Nc1ccc(N2Cc3ccc(Cl)cc3C2=O)c(Cl)c1 [Compound 17g]

fold loss of potency relative to 17t ([4]; mGlu4 PAM EC50 relative to 17t): ~ 5 fold
SMILES: CCc1cnc(Oc2ccc(NC(=O)c3nccnc3N)cc2Cl)nc1 [Compound 20]

fold less potent than 6 ([4]; mGlu4 PAM EC50 relative to 6): ~ 7 fold
SMILES: Nc1cccnc1C(=O)Nc1cccc(Cl)c1 [Compound 7]

selectivity versus the other mGlu receptors [1]: excellent selectivity | total brain level, fold above the rat mGlu4 PAM EC50 [2]: greater than 2 fold | mGlu4 PAM activity (in words) [4]: good PAM activity
SMILES: Nc1cccnc1C(=O)Nc1ccc(N2C(=O)c3ccccc3C2=O)c(Cl)c1 [Compound 17a, N-(3-chloro-4-(1,3-dioxoisoindolin-2-yl)phenyl)-3-aminopicolinamide]
reversal of haloperidol-induced catalepsy at 1 mg/kg p.o. ([3]; 1 mg/kg p.o., haloperidol 1.5 mg/kg, side-by-side with 6): as efficacious as 6 | reversal of haloperidol-induced catalepsy (in words) ([3]; haloperidol 1.5 mg/kg): robust efficacy
